Patent US4668725A, “Stabilizing compounds for organic polymers, and stabilized polymer compounds which contain them” (Enichem Sintesi S.p.A., priority 1984, dated 1987)

Key:
[1] = Phenoxy radical formation and stability by ESR after reaction of stabilising compound with benzoyl peroxide in toluene; details: 2% by weight each of compound and benzoyl peroxide in toluene; 70° C. for 24 hours, then at rest to ambient temperature
Excerpt: In the case of stabilising compounds of phenolic nature, phenolic radicals characterised by long life have to form within the polymer in order for the antioxidant activity of the stabilising compound to take effect, and therefore the formation and stability of radicals of this type, originating from the reaction between the stabilising compounds of the present invention and benzoyl peroxide in toluene, are taken as parameters for evaluating the stabilising action of the stabilising compounds concerned.
In particular, in this test, toluene solutions containing 4% by weight of the stabilising compound are prepared simultaneously with solutions containing the same weight percentage of benzoyl peroxide. A small quantity of the stabilising compound solution is then mixed with an equal quantity of the benzoyl peroxide solution.
After mixing, a solution containing 2% by weight of each component is obtained. 1 ml of the resultant solution is then transferred to an ESR (electronic spin resonance) sample tube where it is degassed and sealed under vacuum. The system obtained in this manner is heated to 70° C. for 24 hours. The radical stability is checked by ESR spectra both during the 24 hour heating period and during the subsequent time, in which the system is left at rest to cool to ambient temperature.

[2] = Accelerated oven ageing of polypropylene film: growth of carbonyl index (IR band at 1720 cm^-1); details: air circulation oven at 140° C.; 0.1% of the weight of the polymer; 100 μm film; extrapolated to zero carbonyl index; absent stabiliser: 2
Procedure: (§1) Accelerated thermal ageing tests are also carried out on polypropylene stabilised by the stabilising compounds of the present invention, and in particular the following tests are carried out:
measurements of the growth of the carbonyl index on polypropylene film containing the stabilising compound and subjected to thermal treatment; and
In the first case, the carbonyl index is evaluated from the IR spectrum for the film, by measuring the band intensity at 1720 cm^-1, and is defined by the relationship: [formula] where Io is the initial band intensity, It is the intensity at time t and S is the film thickness in μm.
The polypropylene film containing the stabilising compound is prepared by dissolving the stabilising compound in benzene and mixing the resultant solution with powdered polypropylene containing no other additive.
The stabilising compound is added in a quantity of 0.1% of the weight of the polymer. The benzene is then removed by evaporation under reduced pressure, and the residual powder is pressed into a film of 100 μm thickness.
The pressing is carried out at a temperature of 160° C. under a pressure of 900 kg/cm^2 for a time of 5 minutes. The film is extracted from the press and is rapidly cooled under running water.
The film prepared in this manner is then subjected to accelerated ageing in an air circulation oven at 140° C.
(§2) The polypropylene used for the tests is the commercial product Moplen® FL 20F of the Montedison Company.
Time of oven treatment (at 140° C.) required for inducing the formation of the IR band at 1720 cm^-1 in polypropylene films without stabilising compound and with stabilising compound.

[3] = Melt flow index variation of stabilised polypropylene on repeated extrusion; set-up: unit not given here; details: ASTM-D1238, 90° C., 2.16 kg/cm^2
Procedure: as §1
measurements of the variation in the melt flow index of the polypropylene containing the stabilising compound and subjected to repeated extrusion.
Finally, the melt flow index variation measurements are carried out on polypropylene powder mixed with the stabilising compound by stirring for 30 minutes in a planetary mixer. The repeated extrusions are carried out in an extruder of 19 mm diameter, of length 25 times its diameter, and provided with a 2 mm nozzle and a screw, the compression ratio being 1:4, the speed being 50 r.p.m. The temperature profile along the extruder is 175° C.; 230° C.; 270° C.; 270° C.
After each extrusion, the filament obtained is cut into granules to be subjected to a new extrusion passage.
At the end of each passage, some of the granules are used for measuring the melt flow index in accordance with ASTM-D1238, operating at 90° C. and at a pressure of 2.16 kg/cm^2.
The melt flow index values after 1, 3, 5 and 7 passages through the extruder are shown for polypropylene stabilised by certain stabilisers according to the present invention in Table 3.
as §2
Melt flow index of polypropylene containing the stabilising compound as a function of the number of successive passages through the extruder.

Row | Melt flow index of polypropylene containing the stabilising compound ([3]; 1 extrusion) | Melt flow index of polypropylene containing the stabilising compound ([3]; 3 extrusions) | Melt flow index of polypropylene containing the stabilising compound ([3]; 5 extrusions) | Melt flow index of polypropylene containing the stabilising compound ([3]; 7 extrusions) | Compound | t 1/2: time required to reduce to one half the ESR signal intensity for the phenoxy radicals [1] | t 1/4: time required to reduce to one quarter the ESR signal intensity for the phenoxy radicals [1] | Induction time for the formation of the IR band at 1720 cm^-1 (carbonyl band) in polypropylene films [2]
1 | 7.34 | 9.91 | 12.59 | 14.61 | CC(C)(C)c1cc(CCC(=O)OCCOc2ccc(OCCOC(=O)CCc3cc(C(C)(C)C)c(O)c(C(C)(C)C)c3)cc2)cc(C(C)(C)C)c1O [Example 3, 1,4-phenylene-bis-(oxyethylidene)-bis-[3-(4'-hydroxy-3',5'-di-tert-butylphenyl)propionate]] | 24 h | 90 h | 575 h
2 | – | – | – | – | CC(C)(C)c1cc(CCC(=O)Oc2cccc(OC(=O)CCc3cc(C(C)(C)C)c(O)c(C(C)(C)C)c3)c2OC(=O)CCc2cc(C(C)(C)C)c(O)c(C(C)(C)C)c2)cc(C(C)(C)C)c1O [Example 1, benzene-1,2,3-tri[3-(4'-hydroxy-3',5'-di-tert-butylphenyl)propionate]] | 20 h | 100 h | 260 h
3 | – | – | – | – | CC(C)(C)c1cc(CCC(=O)Oc2cc(C(=O)O)cc(OC(=O)CCc3cc(C(C)(C)C)c(O)c(C(C)(C)C)c3)c2OC(=O)CCc2cc(C(C)(C)C)c(O)c(C(C)(C)C)c2)cc(C(C)(C)C)c1O [Example 2, benzene-3,4,5-tri[3-(4'-hydroxy-3',5'-di-tert-butylphenyl)propionate]-1-carboxylic acid] | – | – | 160 h
4 | 7.42 | 10.36 | 13.09 | 15.78 | CC(C)(C)c1cc(CCC(=O)Nc2ccc(OC(=O)CCc3cc(C(C)(C)C)c(O)c(C(C)(C)C)c3)cc2)cc(C(C)(C)C)c1O [Example 4, phenylene-1-[3-(4'-hydroxy-3',5'-di-tert-butylphenyl)propionate]-4-[3-(4'-hydroxy-3',5'-di-tert-butylphenyl)propionamide]] | 15 h | 150 h | –
